Patent US20160304552A1, “MODIFIED NUCLEIC ACID MOLECULES AND USES THEREOF” (MODERNA THERAPEUTICS, INC., priority 2013, published 2016)

Assays:
T7 RNA polymerase = T7 RNA polymerase (Escherichia phage T7, UniProt P00573); assay: In vitro transcription yields of modified mRNA; format: biochemical; conditions: for EPO In Vitro Transcription yield: EPO mRNA made with the modified NTP(s); for GCSF In Vitro Transcription yield: GCSF mRNA made with the modified NTP(s); for Luc In Vitro Transcription yield: Luciferase mRNA made with the modified NTP(s)
Method: The in vitro transcription reaction generates mRNA containing modified nucleotides or modified RNA. The input nucleotide triphosphate (NTP) mix is made in-house using natural and unnatural NTPs.
A typical in vitro transcription reaction includes the following:
Incubation at 37° C. for 3 hr-5 hrs.
The crude IVT mix may be stored at 4° C. overnight for cleanup the next day. 1 U of RNase-free DNase is then used to digest the original template. After 15 minutes of incubation at 37° C., the mRNA is purified using Ambion's […]™ Kit (Austin, Tex.) following the manufacturer's instructions. This kit can purify up to 500 μg of RNA. Following the cleanup, the RNA is quantified using the NanoDrop and analyzed by agarose gel electrophoresis to confirm the RNA is the proper size and that no degradation of the RNA has occurred.
Modified mRNAs in TE buffer (1 μl) are used for Nanodrop UV absorbance readings to quantitate the yield of each modified mRNA from an in vitro transcription reaction (UV absorbance traces are not shown).

[1] = tested on: Rabbit Reticulocyte Lysate; assay: In vitro translation screen, firefly Luciferase modRNA (luciferase assay, relative light units); format: biochemical; conditions: Table 20; 250 ng modRNA, 45 min, 30° C.
Method: (§1) The in vitro translation assay was done with the Rabbit Reticulocyte Lysate (nuclease-treated) kit (Promega, Madison, Wis.; Cat. #L4960) according to the manufacturer's instructions. The reaction buffer was a mixture of equal amounts of the amino acid stock solutions devoid of Leucine or Methionine provided in the kit.
(§2) The modRNAs of firefly Luciferase, human GCSF and human EPO, harboring chemical modifications on either the bases or the ribose units, were diluted in sterile nuclease-free water to a final concentration of 250 ng in 2.5 ul (Stock 100 ng/μl). The modRNA (250 ng) was added to the mixture of freshly prepared Rabbit Reticulocyte Lysate and reaction buffer.
After 45 min incubation, the reaction was stopped by placing the plate on ice. Aliquots of the in vitro translation reaction containing luciferase modRNA were transferred to white opaque polystyrene 96-well plates (Corning, Manassas, Va.; Cat. # CLS3912) and combined with 100 ul complete luciferase assay solution (Promega, Madison, Wis.). The volumes of the in vitro translation reactions were adjusted or diluted until no more than 2 million relative light units per well were detected for the strongest signal producing samples. […] The plate reader was a BioTek Synergy H1 (BioTek, Winooski, Vt.).

human PBMC = assay: PBMC cytokine assay, interferon-alpha production (IFN-alpha multi-subtype ELISA); format: cell-based
Method: 50 mL of human blood from three donors was received from Research Blood Components (Brighton, Mass.) in sodium heparin tubes. […] The tubes were centrifuged at 2000 rpm for 30 minutes with low acceleration and braking (Thermo, Waltham, Mass., 75004506). The tubes were removed and the buffy coat PBMC layers were gently transferred to a fresh 50 mL conical and washed with DPBS. The tubes were centrifuged at 1450 rpm for 10 minutes. The supernatant was aspirated and the PBMC pellets were resuspended and washed in 50 mL of DPBS. The tubes were centrifuged at 1450 rpm for 10 minutes. […] The cell suspensions were adjusted to a concentration of 3.0×10^6 cells/mL live cells. […] Within 30 minutes, transfection mixtures were added to each well at a volume of 50 μL per well. […] The transfection mixtures were then transferred to each of the human PBMC plates at 50 μL per well (6 wells per mRNA sample). The plates were then incubated at 37° C. […] In order to harvest the supernatant, plates were centrifuged at 1450 rpm for 5 min in a swinging plate rotor. The supernatant of 6 wells transfected with the same mRNA was carefully harvested and pooled in a single well of a fresh 96-well plate. Supernatants were either frozen or used fresh until ELISA analysis was done. The ability of unmodified and modified mRNA to trigger innate immune recognition as measured by interferon-alpha production.

[2] = tested on: Rabbit Reticulocyte Lysate; assay: In vitro translation screen, human GCSF modRNA (GCSF ELISA); format: biochemical; conditions: Table 20; 250 ng modRNA, 45 min, 30° C.
Method: as §1, §2
(§3) Aliquots of the in vitro translation reaction containing human GCSF modRNA or human EPO mRNA were transferred and analyzed with a human GCSF-specific or EPO ELISA kit (both from R&D Systems, Minneapolis, Minn.; Cat. #s SCS50, DEP00 respectively) according to the manufacturer instructions. All samples were diluted until the determined values were within the linear range of the human GCSF or EPO ELISA standard curve.

[3] = tested on: Rabbit Reticulocyte Lysate; assay: In vitro translation screen, human EPO modRNA (EPO ELISA); format: biochemical; conditions: Table 20; 250 ng modRNA, 45 min, 30° C.
Method: as §1, §2, §3

HeLa cells [4] = assay: Transfection in HeLa cells, human EPO modRNA (EPO ELISA of supernatant); format: cell-based; conditions: Table 22, 18 h to 22 h
Method: (§4) The day before transfection, 20.000 HeLa cells (ATCC no. CCL-2; Manassas, Va.) were harvested by treatment with Trypsin-EDTA solution (LifeTechnologies, Grand Island, N.Y.) and seeded in a total volume of 100 ul EMEM medium (supplemented with 10% FCS and 1× Glutamax) per well in a 96-well cell culture plate (Corning, Manassas, Va.). The cells were grown at 37° C. in 5% CO2 atmosphere overnight. Next day, 83 ng of Luciferase modRNA or 250 ng of human GCSF modRNA, harboring chemical modifications on the bases or the ribose units, were diluted in 10 ul final volume of OPTI-MEM (LifeTechnologies, Grand Island, N.Y.). Lipofectamine 2000 (LifeTechnologies, Grand Island, N.Y.) was used as transfection reagent and 0.2 μl were diluted in 10 ul final volume of OPTI-MEM. After 5 min incubation at room temperature, both solutions were combined and incubated additional 15 min at room temperature. Then the 20 μl were added to the 100 ul cell culture medium containing the HeLa cells. The plates were then incubated as described before.
(§5) After 18 h to 22 h incubation, cell culture supernatants of cells expressing human GCSF or human EPO were collected and centrifuged at 10.000 rcf for 2 min. The cleared supernatants were transferred and analyzed with a human GCSF-specific or EPO ELISA kit (both from R&D Systems, Minneapolis, Minn.; Cat. #s SCS50, DEP00, respectively) according to the manufacturer instructions. All samples were diluted until the determined values were within the linear range of the human GCSF or EPO ELISA standard curve.

HeLa cells [5] = assay: Transfection in HeLa cells, Luciferase modRNA (luciferase assay, relative light units); format: cell-based, human; conditions: Table 22, 83 ng modRNA, Lipofectamine 2000, 18 h to 22 h
Method: as §4
After 18 h to 22 h incubation, cells expressing luciferase were lysed with 100 μl Passive Lysis Buffer (Promega, Madison, Wis.) according to manufacturer instructions. Aliquots of the lysates were transferred to white opaque polystyrene 96-well plates (Corning, Manassas, Va.) and combined with 100 ul complete luciferase assay solution (Promega, Madison, Wis.). The lysate volumes were adjusted or diluted until no more than 2 mio relative light units per well were detected for the strongest signal producing samples. […] The plate reader was a BioTek Synergy H1 (BioTek, Winooski, Vt.).

HeLa cells [6] = assay: Transfection in HeLa cells, human GCSF modRNA (GCSF ELISA of supernatant); format: cell-based; conditions: Table 22, 250 ng modRNA, 18 h to 22 h
Method: as §4, §5

T7 RNA polymerase, sequence (P00573 whole entry): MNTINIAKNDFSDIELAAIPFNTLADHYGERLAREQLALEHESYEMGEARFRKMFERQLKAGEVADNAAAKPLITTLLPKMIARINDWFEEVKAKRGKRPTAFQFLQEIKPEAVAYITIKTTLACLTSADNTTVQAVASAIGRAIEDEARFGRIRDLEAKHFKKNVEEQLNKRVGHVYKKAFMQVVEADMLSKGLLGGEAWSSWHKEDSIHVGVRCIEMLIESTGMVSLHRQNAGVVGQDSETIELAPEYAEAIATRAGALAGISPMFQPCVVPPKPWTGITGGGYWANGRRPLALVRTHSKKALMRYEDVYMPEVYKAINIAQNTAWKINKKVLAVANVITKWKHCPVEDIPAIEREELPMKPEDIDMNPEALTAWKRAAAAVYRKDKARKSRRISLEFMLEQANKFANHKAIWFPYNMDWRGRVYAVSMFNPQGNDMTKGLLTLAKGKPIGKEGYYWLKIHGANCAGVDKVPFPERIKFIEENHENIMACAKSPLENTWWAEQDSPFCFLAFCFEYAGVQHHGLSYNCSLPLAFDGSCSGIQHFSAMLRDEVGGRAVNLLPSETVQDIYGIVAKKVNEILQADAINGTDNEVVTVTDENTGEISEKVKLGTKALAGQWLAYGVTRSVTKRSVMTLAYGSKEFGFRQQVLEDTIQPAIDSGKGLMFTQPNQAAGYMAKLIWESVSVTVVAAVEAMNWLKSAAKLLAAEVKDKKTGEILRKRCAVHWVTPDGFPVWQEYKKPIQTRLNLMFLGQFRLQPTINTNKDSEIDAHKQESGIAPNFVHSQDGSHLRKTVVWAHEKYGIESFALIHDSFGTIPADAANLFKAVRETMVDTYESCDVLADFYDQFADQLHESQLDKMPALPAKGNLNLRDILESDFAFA

| SMILES | EPO In Vitro Transcription yield (T7 RNA polymerase) [mg] | GCSF In Vitro Transcription yield (T7 RNA polymerase) [mg] | Luc In Vitro Transcription yield (T7 RNA polymerase) [mg] | Luc Expression (RLUs) [1] [RLUs] | interferon-alpha concentration in PBMC supernatant (human PBMC; Luc mRNA, 1st value in cell) [pg/mL] | interferon-alpha concentration in PBMC supernatant (human PBMC; Luc mRNA, 2nd value in cell) [pg/mL] | interferon-alpha concentration in PBMC supernatant (human PBMC; Luc mRNA, 3rd value in cell) [pg/mL] | interferon-alpha concentration in PBMC supernatant (human PBMC; hEPO mRNA, 1st value in cell) [pg/mL] | interferon-alpha concentration in PBMC supernatant (human PBMC; hEPO mRNA, 2nd value in cell) [pg/mL] | interferon-alpha concentration in PBMC supernatant (human PBMC; hEPO mRNA, 3rd value in cell) [pg/mL] | interferon-alpha concentration in PBMC supernatant (human PBMC; hGCSF mRNA, 1st value in cell) [pg/mL] | interferon-alpha concentration in PBMC supernatant (human PBMC; hGCSF mRNA, 2nd value in cell) [pg/mL] | interferon-alpha concentration in PBMC supernatant (human PBMC; hGCSF mRNA, 3rd value in cell) [pg/mL] | GCSF Expression [2] [pg/mL] | Epo Expression [3] [pg/mL] | Epo Expression (HeLa cells [4]) [pg/mL] | Luc Expression (RLUs) (HeLa cells [5]) | GCSF Expression (HeLa cells [6]) [pg/mL] | Luc (3 Donor samples) (human PBMC; Luc mRNA, 1st value in cell) [pg/mL] | Luc (3 Donor samples) (human PBMC; Luc mRNA, 2nd value in cell) [pg/mL] | other results |
| --- | --- | --- | --- | --- | --- | --- | --- | --- | --- | --- | --- | --- | --- | --- | --- | --- | --- | --- | --- | --- | --- |
| Nc1nc(=O)n([C@@H]2O[C@H](COP(=O)(O)OP(=O)(O)OP(=O)(O)O)C(O)C2O)cc1CO (stereo in doubt) [00901014005 (350), 5-Hydroxymethyl-CTP] | 0.7778 | 0.6391 | 0.4073 | 154000 | 7130 | 3680 | 8990 | 4960 | 3100 | 2412.5 | 6575 | 5800 | 8180 | 26600 | 9425 | 440300 | 22160 | 1151000 |  |  |  |
| O=c1[nH]c(=S)[nH]cc1[C@@H]1O[C@H](COP(=O)(O)OP(=O)(O)OP(=O)(O)O)C(O)C1O (stereo in doubt) [00901015006 (193), 2-Thio-pseudo-UTP] | 1.081 | 0.5207 | 0.6123 | 2198 | 530 | 1180 | 1400 | -210 | 675 | 362.5 | 358.33 | 166.66 | 490 | 5988 | 12310 | 380600 | 1999 | 239300 |  |  |  |
| O=c1[nH]cc([C@@H]2O[C@H](COP(O)(=S)OP(=O)(O)OP(=O)(O)O)C(O)C2O)c(=O)[nH]1 (stereo in doubt) [00902015001 (194), PseudoU-alpha-thio-TP] | 0.8632 | 0.5522 | 0.6479 | 5221 |  |  |  |  |  |  |  |  |  | 7763 | 2669 | 302800 | 2015 | 320000 | 20 | 170 | Luc (3 Donor samples) (human PBMC; Luc mRNA, 3rd value in cell): -90 pg/mL; hEPO (3 Donor samples) (human PBMC; hEPO mRNA, 1st value in cell): -190 pg/mL; hEPO (3 Donor samples) (human PBMC; hEPO mRNA, 2nd value in cell): 75 pg/mL; hEPO (3 Donor samples) (human PBMC; hEPO mRNA, 3rd value in cell): 400 pg/mL; hGCSF (3 Donor samples) (human PBMC; hGCSF mRNA, 1st value in cell): 50 pg/mL; hGCSF (3 Donor samples) (human PBMC; hGCSF mRNA, 2nd value in cell): 508.33 pg/mL; hGCSF (3 Donor samples) (human PBMC; hGCSF mRNA, 3rd value in cell): 640 pg/mL |
| Cn1cc([C@@H]2O[C@H](COP(O)(=S)OP(=O)(O)OP(=O)(O)O)C(O)C2O)c(=O)[nH]c1=O (stereo in doubt) [00902015002 (195), 1-Methyl-pseudo-U-alpha-thio-TP] | 0.7679 | 0.6582 | 0.6011 | 1201 |  |  |  |  |  |  |  |  |  | 4244 | 1694 | 348600 | 4900 | 372100 | 180 | 500 | Luc (3 Donor samples) (human PBMC; Luc mRNA, 3rd value in cell): 180 pg/mL; hEPO (3 Donor samples) (human PBMC; hEPO mRNA, 1st value in cell): -290 pg/mL; hEPO (3 Donor samples) (human PBMC; hEPO mRNA, 2nd value in cell): 512.5 pg/mL; hEPO (3 Donor samples) (human PBMC; hEPO mRNA, 3rd value in cell): 475 pg/mL; hGCSF (3 Donor samples) (human PBMC; hGCSF mRNA, 1st value in cell): 425 pg/mL; hGCSF (3 Donor samples) (human PBMC; hGCSF mRNA, 2nd value in cell): 916.66 pg/mL; hGCSF (3 Donor samples) (human PBMC; hGCSF mRNA, 3rd value in cell): 1250 pg/mL |
| Nc1ccn([C@@H]2O[C@H](COP(O)(=S)OP(=O)(O)OP(=O)(O)O)C(O)C2O)c(=O)n1 (stereo in doubt) [Compound 00902014001, Alpha-thio-CTP] | 0.2669 | 0.2650 | 0.3352 | 142900 |  |  |  |  |  |  |  |  |  | 26930 | 17000 | 195400 | 1845 | 285000.00 |  |  |  |
